# Experimental data from article PMC3661926 (Acta Neuropathologica, 2013).
# Read-outs that look alike come from different tables or passages of the source.
# Key:
# 139A = conditions: mouse, in vivo, cited from earlier work
# [1] = tested on: cultured human peripheral lymphocytes
# [2] = target: PrP^Sc (RML prion strain) (Mus musculus, UniProt P04925); test: biochemical; conditions: read-out: % inhibition PrP^Sc PMCA
# [3] = mouse, in vivo, po
# α-synuclein (α-syn) = target: T1, α-synuclein (α-syn) (Homo sapiens, UniProt P37840); test: α-synuclein in vitro oligomer formation assay (SIFT); type: biochemical; conditions: read-out: % inhibition α-syn SIFT
# T1 construct: made in house
# Procedure: Expression and purification of recombinant wild-type α-synuclein (α-syn) was performed according to established protocols. Fluorescent labelling of α-syn and quality control were performed as described.
# The α-syn aggregation assay was conducted with minor modifications as published previously. […] The concentration of α-syn was approximately 20 nM. In all experiments, α-syn aggregation was induced by final concentrations of 1 % DMSO and 10 μM FeCl3. Compounds were diluted into the assay mixture from 10-fold stock solutions containing 10 % DMSO (v/v), resulting in a final concentration of 1 % DMSO in all samples. “Low control” measurements for threshold setting were obtained without FeCl3 and DMSO. Experiments were started by diluting the 5-fold stock solution of fluorescently labelled α-syn in 50 mM Tris-buffer, pH 7.0, containing 1 % DMSO, 10 μM FeCl3 and compounds in concentrations ranging from 1–10 μM.
# Aggregation of α-syn was measured by scanning for intensely fluorescent targets (SIFT). […] Excitation power was 200 μW at 488 nm and 300 μW at 633 nm. Measurement time was 10 s. Scanning parameters were set to 100 μm scan path length, 50 Hz beam scanner frequency, and 2,000 μm positioning table movement. The frequency of specific combinations of “green” and “red” photon counts was recorded in a two-dimensional intensity distribution histogram, as described previously. Evaluation of SIFT data in two-dimensional intensity distribution histograms was performed by summing up the numbers of photons from high intensity bins using a two-dimensional SIFT software module (Evotec-Technologies). For threshold setting, non-aggregated reference samples were used. The photon count in bins above the threshold was considered aggregate signal.
# RML scrapie = test: whole plant or invertebrate; type: in vivo, C57BL/6 mice; conditions: for inhibition in vivo at 1 mg: in Mus musculus, po, 2880 h, read-out: % inhibition PrP^Sc in vivo (a); for % inhibition PrP^Sc in vivo (b): PrP^Sc level in spleen 35 days after i.p. infection, 34 days treatment with 1 mg compound oral in peanut butter
# actin = type: biochemical
# [4] = tested on: prion strains RML, ME7, 301C, sCJD, vCJD; type: biochemical, mouse and human; conditions: 1 μl of 10 mM compound solution in DMSO
# RML = conditions: mouse, in vivo, cited from earlier work
# M1000 = conditions: mouse, in vivo, ip; cited from earlier work
# prion = conditions: cited from earlier work
# [5] = in vivo; cited from earlier work
# [6] = relative to high control, 10 μM compound, 1 % DMSO, 10 μM FeCl3
# Chain of PrP^Sc (RML prion strain) (P04925 23-230 limits assumed): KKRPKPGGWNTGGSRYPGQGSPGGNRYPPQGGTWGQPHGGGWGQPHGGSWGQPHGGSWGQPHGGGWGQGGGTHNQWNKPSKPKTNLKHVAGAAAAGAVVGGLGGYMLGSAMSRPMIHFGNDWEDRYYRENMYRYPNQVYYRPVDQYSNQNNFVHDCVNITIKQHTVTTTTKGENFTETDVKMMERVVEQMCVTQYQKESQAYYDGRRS
compound,measurement,setting,value
CC(CN(C)C)CN1c2ccccc2CCc2ccccc21 (centres unmarked) [Trimipramine],Median/Mean* Survival Therapy,"139A; ip, 10 mg/kg",210 days
same,difference of survival therapy vs control,"139A; ip, 10 mg/kg",40 days
"CO[C@@]12[C@H](COC(N)=O)C3=C(C(=O)C(C)=C(N)C3=O)N1C[C@@H]1N[C@@H]12 [Mitomycin C, reference compound]",chromosomal damage by positive controls,[1],significant damage
Cl.Nc1ccc(-c2cc(-c3cccc(Br)c3)[nH]n2)cc1 [sery384],inhibition at 10 µM,[2],55%
same,conc. brain,[3],"13,9 nmol/g"
same,inhibition at 10 µM,α-synuclein (α-syn),99%
same,inhibition in vivo at 1 mg,RML scrapie,< 10%
Oc1ccc(-c2cc(-c3cccc(Br)c3)n[nH]2)cc1O [anle138c],inhibition at 10 µM,[2],19%
same,inhibition at 10 µM,α-synuclein (α-syn); [6],99%
same,effect on actin polymerization,actin,do not affect actin polymerization
same,inhibition in vivo at 1 mg,RML scrapie,< 10%
Brc1ccccc1-c1cc(-c2ccc3c(c2)OCO3)n[nH]1 [anle234b],"inhibitory activity in PMCA, all prion strains tested",[4],inactive
same,inhibition at 10 µM,[2],< 10%
same,conc. brain,[3],32.1 nmol/g
same,inhibition at 10 µM,α-synuclein (α-syn); [6],< 10%
same,inhibition in vivo at 1 mg,RML scrapie,< 10%
Nc1ccc(-c2cc(-c3ccc(Cl)cc3)[nH]n2)cc1,melting point,,213 to 214 °C
Fc1cccc(-c2cc(-c3ccc4c(c3)OCO4)n[nH]2)c1 [anle186b],inhibition at 10 µM,[2],48%
same,conc. brain,[3],31.1 nmol/g
same,inhibition at 10 µM,α-synuclein (α-syn); [6],< 10%
same,% inhibition PrP^Sc in vivo (c),"RML scrapie; PrP^Sc level in brain 106 days after i.c. infection, treatment 24 days: 14 days i.p. 0.84 mg, 2 × 5 days oral gavage 1 mg",30^c %
same,"change of PrPSc levels in brain, mixed application scheme","RML scrapie; from 80 dpi: 14 days i.p. 0.84 mg, 2 x 5 days gavage 1 mg, measured at 95 and 106 dpi",slight reduction of PrPSc accumulation
C=CC[C@@H]1/C=C(\C)C[C@H](C)C[C@H](OC)[C@H]2O[C@@](O)(C(=O)C(=O)N3CCCC[C@H]3C(=O)O[C@H](/C(C)=C/[C@@H]3CC[C@@H](O)[C@H](OC)C3)[C@H](C)[C@@H](O)CC1=O)[C@H](C)C[C@@H]2OC [Tacrolimus],Median/Mean* Survival Therapy,"RML; ip, 5 mg/kg",35 days
same,difference of survival therapy vs control,"RML; ip, 5 mg/kg",9 days
"O=P1(N(CCCl)CCCl)NCCCO1 (centres unmarked) [cyclophosphamide, reference compound]",chromosomal damage by positive controls,[1],significant damage
Fc1cccc(-c2nc(-c3ccc4c(c3)OCO4)no2)c1,melting point,,161 °C
Brc1cccc(-c2cc(-c3ccc4[nH]cnc4c3)n[nH]2)c1 [sery417],inhibition at 10 µM,[2],51%
same,conc. brain,[3],0 nmol/g
same,inhibition at 10 µM,α-synuclein (α-syn); [6],< 10%
same,inhibition in vivo at 1 mg,RML scrapie,< 10%
Br.Oc1cc(-c2cc(-c3cc(Br)cc(Br)c3)n[nH]2)cc(O)c1O [anle145c],effect on actin polymerization,actin,do not affect actin polymerization
CN(C)c1ccc(-c2cc(-c3cccc(Br)c3)n[nH]2)cc1 [anle253b],inhibition at 10 µM,[2],80%
same,conc. brain,[3],2.1 nmol/g
same,inhibition at 10 µM,α-synuclein (α-syn); [6],50%
same,effect on actin polymerization,actin,do not affect actin polymerization
same,inhibition in vivo at 1 mg,RML scrapie,59%
Fc1ccc(F)c(-c2cc(-c3ccc4c(c3)OCO4)n[nH]2)c1,melting point,,225 to 226 °C
Brc1cccc(-c2c[nH]c(-c3ccc4c(c3)OCO4)n2)c1 [sery345],inhibition at 10 µM,[2],< 10%
same,conc. brain,[3],16.6 nmol/g
same,inhibition at 10 µM,α-synuclein (α-syn); [6],57%
same,inhibition in vivo at 1 mg,RML scrapie,< 10%
Brc1ccc(-c2cc(-c3ccc4c(c3)OCO4)n[nH]2)cc1 [sery378b],inhibition at 10 µM,[2],34%
same,conc. brain,[3],26 nmol/g
same,inhibition at 10 µM,α-synuclein (α-syn); [6],74%
same,inhibition in vivo at 1 mg,RML scrapie,39%
FC(F)(F)c1cccc(-c2cc(-c3ccc4c(c3)OCO4)n[nH]2)c1 [anle236b],inhibition at 10 µM,[2],< 10%
same,conc. brain,[3],39.3 nmol/g
same,inhibition at 10 µM,α-synuclein (α-syn); [6],< 10%
same,inhibition in vivo at 1 mg,RML scrapie,12%
O=[N+]([O-])c1ccc(-c2cc(-c3cccc(Cl)c3)n[nH]2)cc1,melting point,,275 to 276 °C
CCC(C)(C)C(=O)O[C@H]1C[C@@H](C)C=C2C=C[C@H](C)[C@H](CC[C@@H]3C[C@@H](O)CC(=O)O3)[C@H]21 [Simvastatin],Median/Mean* Survival Therapy,"RML; po, 20 mg/kg",167 days
same,difference of survival therapy vs control,"RML; po, 20 mg/kg",19 days
COc1cc(/C=C/C(=O)CC(=O)/C=C/c2ccc(O)c(OC)c2)ccc1O [Curcumin],Median/Mean* Survival Therapy,"139A; po, 50 mg/kg",208 days
same,difference of survival therapy vs control,"139A; po, 50 mg/kg",12 days
Na2CaCDTA,Median/Mean* Survival Therapy,M1000,189 days
same,difference of survival therapy vs control,M1000,20 days
c1cc2c(cc1-c1cc(-c3ccc4c(c3)OCO4)[nH]n1)OCO2 [anle232b],inhibition at 10 µM,[2],26%
same,inhibition at 10 µM,α-synuclein (α-syn); [6],< 10%
same,inhibition in vivo at 1 mg,RML scrapie,23%
"Clc1cccc(-c2cc(-c3ccc4c(c3)OCO4)n[nH]2)c1 [sery335b, 3-(1,3-Benzodioxol-5-yl)-5-(3-chlorophenyl)-1H-pyrazole]",inhibition at 10 µM,[2],52%
same,conc. brain,[3],29.6 nmol/g
same,inhibition at 10 µM,α-synuclein (α-syn); [6],90%
same,% inhibition PrP^Sc in vivo (b),RML scrapie,46%
same,inhibition in vivo at 1 mg,RML scrapie,68%
CCN(CC)CCCC(C)Nc1c2ccc(Cl)cc2nc2ccc(OC)cc12 (centres unmarked) [quinacrine],anti-prion activity in cell culture,prion,high anti-prion activity in cell culture
same,concentrations reached in the brain,[5],does not reach sufficient concentrations in the brain
Ic1cccc(-c2cc(-c3ccc4c(c3)OCO4)n[nH]2)c1 [anle197b],inhibition at 10 µM,[2],16%
same,inhibition at 10 µM,α-synuclein (α-syn); [6],< 10%
same,% inhibition PrP^Sc in vivo (b),RML scrapie,<10^b %
CC[C@H](C)C(=O)O[C@H]1C[C@H](O)C=C2C=C[C@H](C)[C@H](CC[C@@H](O)C[C@@H](O)CC(=O)O)[C@H]21 [Pravastatin],Median/Mean* Survival Therapy,"139A; po, 200 mg/kg",194 days
same,difference of survival therapy vs control,"139A; po, 200 mg/kg",17 days
Brc1cccc(-c2cc(-c3ccc4c(c3)CCO4)[nH]n2)c1 [sery312b],inhibition at 10 µM,[2],42%
same,conc. brain,[3],"3,6 nmol/g"
same,inhibition at 10 µM,α-synuclein (α-syn),< 10%
same,inhibition in vivo at 1 mg,RML scrapie,13%
OCCN1CCN(CCCN2c3ccccc3Sc3ccc(C(F)(F)F)cc32)CC1 [Fluphenazine],Median/Mean* Survival Therapy,"139A; ip, 10 mg/kg",205 days
same,difference of survival therapy vs control,"139A; ip, 10 mg/kg",35 days
